In US20200085789A1, “USE OF A PROTEASOME INHIBITOR FOR THE TREATMENT OF CENTRAL NERVOUS SYSTEM (CNS) CANCERS” (Celgene International II Sàrl, priority 2017, published 2020):

Assay: Adverse events and dose-limiting toxicity (NCI-CTCAE v 4.03), MRZ ± BEV in recurrent grade IV malignant glioma patients
Format: in vivo, human
Text: An adverse event (AE) is any noxious, unintended, or untoward medical occurrence that may appear or worsen in a subject during the course of a study. […] Any worsening (i.e., any clinically significant adverse change in the frequency or intensity of a pre-existing condition) should be considered an AE.
The severity/intensity of AEs will be graded based upon the subject's symptoms according to the current active minor version of the Common Terminology Criteria for Adverse Events ( ).

[1] = MRZ 0.7 mg/m^2 + BEV, Cohort 2 (N = 3)
[2] = MRZ 0.8 mg/m^2 + BEV, Cohorts 3 & 4 (N = 27)
[3] = MRZ 0.8 mg/m^2, + BEV N = 27, Monotherapy N = 30
[4] = MRZ 0.8 mg/m^2 Monotherapy (N = 30)

Q: What does the source list for `C[C@@]12OC(=O)[C@]1([C@@H](O)[C@@H]1C=CCCC1)NC(=O)[C@@H]2CCCl` [MRZ, marizomib]?
A: Grade ≥3 Ataxia related to the labelled drug, patients [1]: 0; Grade ≥3 Confusional State related to the labelled drug, patients [1]: 0; Grade ≥3 Delusion related to the labelled drug, patients [1]: 0; Grade ≥3 Dyspnea related to the labelled drug, patients [1]: 0; Grade ≥3 Embolism related to the labelled drug, patients [1]: 0; Grade ≥3 Fall related to the labelled drug, patients [1]: 0; Grade ≥3 Fatigue related to the labelled drug, patients [1]: 0; Grade ≥3 Hallucination related to the labelled drug, patients [1]: 0; Grade ≥3 Headache related to the labelled drug, patients [1]: 0; Grade ≥3 Hypertension related to the labelled drug, patients [1]: 0; Grade ≥3 Hyponatremia related to the labelled drug, patients [1]: 0; Grade ≥3 Insomnia related to the labelled drug, patients [1]: 0; Grade ≥3 Intracranial Hemorrhage related to the labelled drug, patients [1]: 0; Grade ≥3 Optic Nerve Disorder related to the labelled drug, patients [1]: 0; Grade ≥3 Proteinuria related to the labelled drug, patients [1]: 0; Grade ≥3 Ataxia related to the labelled drug, patients [2]: 1; Grade ≥3 Confusional State related to the labelled drug, patients [2]: 0; Grade ≥3 Delusion related to the labelled drug, patients [2]: 1; Grade ≥3 Dyspnea related to the labelled drug, patients [2]: 1; Grade ≥3 Embolism related to the labelled drug, patients [2]: 0; Grade ≥3 Fall related to the labelled drug, patients [2]: 1; Grade ≥3 Fatigue related to the labelled drug, patients [2]: 1; Grade ≥3 Hallucination related to the labelled drug, patients [2]: 1; Grade ≥3 Headache related to the labelled drug, patients [2]: 3; Grade ≥3 Hypertension related to the labelled drug, patients [2]: 0; Grade ≥3 Hyponatremia related to the labelled drug, patients [2]: 1; Grade ≥3 Insomnia related to the labelled drug, patients [2]: 1; Grade ≥3 Intracranial Hemorrhage related to the labelled drug, patients [2]: 0; Grade ≥3 Optic Nerve Disorder related to the labelled drug, patients [2]: 0; Grade ≥3 Proteinuria related to the labelled drug, patients [2]: 0; Anaemia [3]: (20.0%); Anaemia, patients [3]: 6; Ataxia [3]: (20.0%); Ataxia, patients [3]: 6; Confusional state [3]: (23.3%); Confusional state, patients [3]: 7; Constipation [3]: (30.0%); Constipation, patients [3]: 9; Diarrhoea [3]: (23.3%); Diarrhoea, patients [3]: 7; Dizziness [3]: (16.7%); Dizziness, patients [3]: 5; Dysarthria [3]: (16.7%); Dysarthria, patients [3]: 5; Dysphonia [3]: (3.3%); Dysphonia, patients [3]: 1; Epistaxis [3]: (6.7%); Epistaxis, patients [3]: 2; Fall [3]: (13.3%); Fall, patients [3]: 4; Fatigue [3]: (63.3%); Fatigue, patients [3]: 19; Hallucination [3]: (40.0%); Hallucination, patients [3]: 12; Headache [3]: (40.0%); Headache, patients [3]: 12; Hyperglycaemia [3]: (27.6%); Hyperglycaemia, patients [3]: 8; Hypertension [3]: (13.3%); Hypertension, patients [3]: 4; Hypokalemia [3]: (27.6%); Hypokalemia, patients [3]: 8; Infusion site pain [3]: (10.0%); Infusion site pain, patients [3]: 3; Insomnia [3]: (46.7%); Insomnia, patients [3]: 14; Nausea [3]: (36.7%); Nausea, patients [3]: 11; Platelet count decreased [3]: (23.3%); Platelet count decreased, patients [3]: 7; Vomiting [3]: (30.0%); Vomiting, patients [3]: 9; Anaemia MRZ Related [4]: (16.7%; Anaemia MRZ Related, patients [4]: 5; Ataxia MRZ Related [4]: (16.7%); Ataxia MRZ Related, patients [4]: 5; Confusional state MRZ Related [4]: (20.0%); Confusional state MRZ Related, patients [4]: 6; Constipation MRZ Related [4]: (20.0%); Constipation MRZ Related, patients [4]: 6; Diarrhoea MRZ Related [4]: (23.3) %; Diarrhoea MRZ Related, patients [4]: 7; Dizziness MRZ Related [4]: (10.0%); Dizziness MRZ Related, patients [4]: 3; Dysphonia MRZ Related, patients [4]: 0; Epistaxis MRZ Related [4]: (3.3%); Epistaxis MRZ Related, patients [4]: 1; Fall MRZ Related [4]: (3.3%); Fall MRZ Related, patients [4]: 1; Fatigue MRZ Related [4]: (60.0%); Fatigue MRZ Related, patients [4]: 18; Hallucination MRZ Related [4]: (36.7%); Hallucination MRZ Related, patients [4]: 11; Headache MRZ Related [4]: (36.7%); Headache MRZ Related, patients [4]: 11; Hypertension MRZ Related [4]: 93.3%); Hypertension MRZ Related, patients [4]: 1; Infusion site pain MRZ Related [4]: (6.7%); Infusion site pain MRZ Related, patients [4]: 2; Muscular weakness MRZ Related, patients [4]: 0; Nausea MRZ Related [4]: (30.0%); Nausea MRZ Related, patients [4]: 9; Platelet count decreased MRZ Related, patients [4]: 0; Stomatitis MRZ Related, patients [4]: 0; Upper-airway cough syndrome MRZ Related, patients [4]: 0; Vomiting MRZ Related [4]: (23.3) %; Vomiting MRZ Related, patients [4]: 7; Anemia: patients, Total (Part 1 N = 36, Part 2 N = 30): 6; Anemia: patients, worst Grade 1 (Part 1 N = 36, Part 2 N = 30): 5; Anemia: patients, worst Grade 2 (Part 1 N = 36, Part 2 N = 30): 1; Ataxia: patients, Total (Part 1 N = 36, Part 2 N = 30): 8; Ataxia: patients, worst Grade 1 (Part 1 N = 36, Part 2 N = 30): 3; Ataxia: patients, worst Grade 2 (Part 1 N = 36, Part 2 N = 30): 5; Confusional State: patients, Total (Part 1 N = 36, Part 2 N = 30): 7; Confusional State: patients, worst Grade 1 (Part 1 N = 36, Part 2 N = 30): 3; Confusional State: patients, worst Grade 2 (Part 1 N = 36, Part 2 N = 30): 4; Constipation: patients, Total (Part 1 N = 36, Part 2 N = 30): 10; Constipation: patients, worst Grade 1 (Part 1 N = 36, Part 2 N = 30): 10; Diarrhea: patients, Total (Part 1 N = 36, Part 2 N = 30): 7; Diarrhea: patients, worst Grade 1 (Part 1 N = 36, Part 2 N = 30): 6; Diarrhea: patients, worst Grade 3 (Part 1 N = 36, Part 2 N = 30): 1; Dizziness: patients, Total (Part 1 N = 36, Part 2 N = 30): 5; Dizziness: patients, worst Grade 1 (Part 1 N = 36, Part 2 N = 30): 4; Dizziness: patients, worst Grade 2 (Part 1 N = 36, Part 2 N = 30): 1; Dysphonia: patients, Total (Part 1 N = 36, Part 2 N = 30): 1; Dysphonia: patients, worst Grade 1 (Part 1 N = 36, Part 2 N = 30): 1; Epistaxis: patients, Total (Part 1 N = 36, Part 2 N = 30): 2; Epistaxis: patients, worst Grade 1 (Part 1 N = 36, Part 2 N = 30): 2; Fall: patients, Total (Part 1 N = 36, Part 2 N = 30): 4; Fall: patients, worst Grade 1 (Part 1 N = 36, Part 2 N = 30): 3
